Data taken from patent publication US8642643B2, “CXCR2 antagonists” (Sanofi, priority 2006, dated 2014).

The compounds below were run against T1, human CXCR2 (Homo sapiens, UniProt P25025) (assay: CXCR2 inhibition: calcium fluorescence assay (FLIPR)). Conditions: chemokine IL-8; CHO-K1 cells stably transfected with human CXCR2 and Gα16; calcium response (Fluo-4).
T1 construct: expressed in transfected cells; host or cells: CHO-K1
T1 sequence (P25025 1-360): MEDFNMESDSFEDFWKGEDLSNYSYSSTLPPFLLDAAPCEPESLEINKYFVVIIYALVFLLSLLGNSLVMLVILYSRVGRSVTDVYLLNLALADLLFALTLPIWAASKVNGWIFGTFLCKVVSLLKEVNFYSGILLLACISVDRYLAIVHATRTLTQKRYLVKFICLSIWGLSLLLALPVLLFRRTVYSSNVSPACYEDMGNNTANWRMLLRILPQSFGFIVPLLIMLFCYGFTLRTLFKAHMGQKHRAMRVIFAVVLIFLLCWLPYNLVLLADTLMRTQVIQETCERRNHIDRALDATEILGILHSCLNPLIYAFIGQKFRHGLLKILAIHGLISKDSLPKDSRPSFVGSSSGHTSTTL
Format: cell-based
Source text: Determination of CXCR2 Inhibition: Calcium Fluorescence Assay (FLIPR)
The assay is based on the detection of intracellular calcium changes detected by the selective, calcium-chelating dye, Fluo-4 (Molecular Probes). A large fluorescence intensity increase is observed upon calcium association with Fluo-4. The dye is delivered to the cell interior using an acetoxymethylester form of Fluo-4, where the intracellular esterase activity results in the charged species being released and trapped within the cytoplasm of the cell. […] By co-expressing the CXCR2 receptor and the promiscuous Gα16 protein, activation of this chemokine receptor is directed into this phospholipase C cascade resulting in intracellular calcium mobilization.
The CHO-K1 cells stably transfected with human CXCR2 and the promiscuous Gα16 protein were maintained in a log phase of growth at 37° C. and 5% CO2 in the following media: Iscove's, 10% FBS, 1× Penicillin-Streptomycin, 400 μg/ml G418 and 350 μg/ml Zeocin. Approximately 24-48 hours prior to the assay, 20,000-30,000 cells/well were plated onto a 96-well black/clear bottomed assay plate (Becton Dickinson) with a well volume of 180 μl. For dye loading the culture medium was carefully removed and replaced by 100 μl/well dye solution (4 μM Fluo-4 in 135 mM NaCl, 5 mM KCl, 1 mM magnesium sulphate, 5 mM glucose, 20 mM hepes, 2.5 mM probenecid; pH 7.4). Cells were incubated for 1 h at 37° C., and then washed 3× with buffer. After washing 90 μl buffer/well were left. Increasing concentrations of compound was added in 45 μl buffer (4× concentrated) followed by 10 min incubation at 37° C. Then the chemokine (10-100 nM) was applied in 45 μl buffer (4× concentrated) and the measurement performed for 2 min. The IC50 value of a compound was determined by calculation of % inhibition of total calcium response to the chemokine.

SMILES	IC50 [nM]
Cc1cc(C(=O)NC(C)(C)C(=O)O)c(OCc2ccc(C(F)(F)F)cc2)c2c1CCC2 [Example 11, 2-Methyl-2-{[7-methyl-4-(4-trifluoromethyl-benzyloxy)-indane-5-carbonyl]-amino}-propionic acid]	1600
CC(C)(NC(=O)c1ccc2ccsc2c1OCc1ccc(C(F)(F)F)cc1)C(=O)O [Example 12, 2-Methyl-2-{[7-(4-trifluoromethyl-benzyloxy)-benzo[b]thiophene-6-carbonyl]-amino}-propionic acid]	700
CCC(C)(NC(=O)c1ccc2c(c1OCc1ccc(OC(F)(F)F)cc1)CCCC2)C(=O)O (stereo not shown) [Example 9, 2-Methyl-2-{[1-(4-trifluoromethoxy-benzyloxy)-5,6,7,8-tetrahydro-naphthalene-2-carbonyl]-amino}-butyric acid]	1500
CC(C)(NC(=O)c1ccc2c(c1OCc1nc3ccccc3s1)CCCC2)C(=O)O [Example 2, 2-{[1-(Benzothiazol-2-ylmethoxy)-5,6,7,8-tetrahydro-naphthalene-2-carbonyl]-amino}-2-methyl-propionic acid]	600
CCC(C)(NC(=O)c1ccc2c(c1OCc1nc3ccccc3s1)CCCC2)C(=O)O (stereo not shown) [Example 5, 2-{[1-(Benzothiazol-2-ylmethoxy)-5,6,7,8-tetrahydro-naphthalene-2-carbonyl]-amino}-2-methyl-butyric acid]	400
CC(C)(NC(=O)c1ccc2sccc2c1OCc1ccc(C(F)(F)F)cc1)C(=O)O [Example 13, 2-Methyl-2-{[4-(4-trifluoromethyl-benzyloxy)-benzo[b]thiophene-5-carbonyl]-amino}-propionic acid]	1100
CC(C)(NC(=O)c1ccc2c(c1OCc1ccc(C(F)(F)F)cc1F)CCCC2)C(=O)O [Example 8, 2-{[1-(2-Fluoro-4-trifluoromethyl-benzyloxy)-5,6,7,8-tetrahydro-naphthalene-2-carbonyl]-amino}-2-methyl-propionic acid]	1800
